Test results from patent publication US20120165304A1, “6,7,8,9-Tetrahydro-5H-1,4,7,10a-tetraaza-cyclohept[f]indene derivatives, pharmaceutical compositions containing these compounds, their use and processes for preparing them” (BOEHRINGER INGELHEIM INTERNATIONAL GMBH, priority 2008, published 2012).

Biological target: human 5-HT2C receptor (Homo sapiens, UniProt P28335, I156V/I160V/N158S)
Assay: cell-based

Chain of human 5-HT2C receptor (P28335 33-458 I156V/N158S/I160V limits assumed): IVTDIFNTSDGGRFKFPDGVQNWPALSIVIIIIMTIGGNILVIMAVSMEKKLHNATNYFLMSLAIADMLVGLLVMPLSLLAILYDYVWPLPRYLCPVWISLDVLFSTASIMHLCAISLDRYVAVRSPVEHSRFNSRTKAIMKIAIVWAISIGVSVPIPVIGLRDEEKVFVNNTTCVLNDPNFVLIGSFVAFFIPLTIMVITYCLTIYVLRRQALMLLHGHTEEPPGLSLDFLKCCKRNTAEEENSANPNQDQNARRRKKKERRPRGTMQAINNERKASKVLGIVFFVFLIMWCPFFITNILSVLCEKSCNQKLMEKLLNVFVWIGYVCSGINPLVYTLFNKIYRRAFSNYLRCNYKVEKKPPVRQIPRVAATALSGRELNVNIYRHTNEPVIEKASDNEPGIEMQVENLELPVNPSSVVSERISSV

SMILES | EC50
Cc1ccccc1OCC1CN(c2c3c(nc4ccnn24)CCNCC3)C1 [Example 15.1] | 6 nM
O=C(Nc1ccccc1)C1CN(c2c3c(nc4ccnn24)CCNCC3)C1 [Example 31.16] | 2390 nM
O=C(C1CN(c2c3c(nc4ccnn24)CCNCC3)C1)N1CCC(Oc2ccccc2)CC1 [Example 31.154] | 40 nM
O=C(C1CN(c2c3c(nc4ccnn24)CCNCC3)C1)N1CC[C@@H](c2ccccc2)C1 [Example 31.223] | 39 nM
CC(NC(=O)C1CN(c2c3c(nc4ccnn24)CCNCC3)C1)C(C)(C)C (stereo not shown) [Example 37.111] | 139 nM
COc1ccc2c(c1)CCN2C(=O)CC1CN(c2c3c(nc4ccnn24)CCNCC3)C1 [Example 33.3] | 12 nM
COc1ccc(CN(C)C(=O)C2CN(c3c4c(nc5ccnn35)CCNCC4)C2)cc1 [Example 31.26] | 29 nM
CN1CCc2nc3ccnn3c(N3CC(C(=O)N4CCN(C)CC4)C3)c2CC1 [Example 36.51] | 81 nM
O=C(C1CN(c2c3c(nc4c(Br)cnn24)CCNCC3)C1)N1CCc2ccccc2C1 [Example 31.136] | 78 nM
O=C(C1CN(c2c3c(nc4ccnn24)CCNCC3)C1)N1CC=CC1 [Example 31.183] | 308 nM
CCc1cnn2c(N3CCC3)c3c(nc12)CCNCC3 [Example 25.2] | 12 nM
Cc1cnc(C2CN(c3c4c(nc5ccnn35)CCNCC4)C2)o1 [Example 10, 10-[3-(5-Methyl-oxazol-2-yl)-azetidin-1-yl]-6,7,8,9-tetrahydro-5H-1,4,7,10a-tetraaza-cyclohepta[f]indene] | 846 nM
Cc1ccccc1OC1CN(c2c3c(nc4ccnn24)CCNCC3)C1 [Example 35.5] | 112 nM
CNCCN(C)C(=O)C1CN(c2c3c(nc4ccnn24)CCNCC3)C1 [Example 37.20] | 26 nM
CC(C)CCNC(=O)C1CN(c2c3c(nc4ccnn24)CCNCC3)C1 [Example 37.82] | 33 nM
CCC(C)(C)NC(=O)C1CN(c2c3c(nc4ccnn24)CCNCC3)C1 [Example 37.54] | 118 nM

SMILES | EC50
Fc1ccc2[nH]c(C3CN(c4c5c(nc6ccnn46)CCNCC5)C3)nc2c1F [Example 34.23] | 594 nM
CN(Cc1cc(Cl)cc(Cl)c1)C(=O)C1CN(c2c3c(nc4ccnn24)CCNCC3)C1 [Example 31.165] | 72 nM
O=C(C1CN(c2c3c(nc4ccnn24)CCNCC3)C1)N1CCN(C2CCCC2)CC1 [Example 37.11] | 2 nM
CCn1c(C2CN(c3c4c(nc5ccnn35)CCNCC4)C2)nc2ccccc21 [Example 34.2] | 150 nM
O=C(NCC1CCCCCC1)C1CN(c2c3c(nc4ccnn24)CCNCC3)C1 [Example 37.68] | 39 nM
CC1(C(=O)N2CCC(c3ccccc3F)CC2)CN(c2c3c(nc4ccnn24)CCNCC3)C1 [Example 32.6] | 2780 nM
c1ccc2oc(C3CN(c4c5c(nc6ccnn46)CCNCC5)C3)nc2c1 [Example 14, 10-(3-Benzooxazol-2-yl-azetidin-1-yl)-6,7,8,9-tetrahydro-5H-1,4,7,10a-tetraaza-cyclohepta[f]indene] | 678 nM
CC#CCNC(=O)C1CN(c2c3c(nc4ccnn24)CCNCC3)C1 [Example 37.105] | 139 nM
c1ccc(C(OC2CCCN(c3c4c(nc5ccnn35)CCNCC4)C2)c2ccccc2)cc1 (stereo not shown) [Example 1.37] | 1300 nM
O=C(C1CN(c2c3c(nc4ccnn24)CCNCC3)C1)N1CC2CCCC2C1 (stereo not shown) [Example 31.166] | 97 nM
O=C(NCC1CCCCO1)C1CN(c2c3c(nc4ccnn24)CCNCC3)C1 (stereo not shown) [Example 37.55] | 66 nM
c1ccc(CC2CN(c3c4c(nc5ccnn35)CCNCC4)C2)cc1 [Example 1.15] | 10 nM
C#CC1(NC(=O)C2CN(c3c4c(nc5ccnn35)CCNCC4)C2)CCCCC1 [Example 37.79] | 62 nM
O=C(C1CN(c2c3c(nc4ccnn24)CCNCC3)C1)N1CCC2(CCCc3ccccc32)C1 (stereo not shown) [Example 31.222] | 96 nM
CN(C)CCN(C)C(=O)C1CN(c2c3c(nc4ccnn24)CCN(C)CC3)C1 [Example 36.2] | 563 nM
